The record followed here is PubChem BioAssay AID2305 (GlaxoSmithKline (GSK), 2010).

The assay relates to P. falciparum 3D7 growth, pLDH absorbance. In words: P. falciparum 3D7 growth inhibition, dose response, strain 3D7 (AID 2305).

In general, IC50 refers to the concentration at which inhibition is half-maximal. Lower therefore signals greater potency in that assay.

SMILES strings stand for the structures. Values joined by “and” are separate entries in the source; they are usually repeats but may differ in a detail not shown here. Identical values can stand only once.

For the compound `CCN(CC(C)O)C(=O)c1ccc(-c2ccc(-c3nc4c(C)cccc4[nH]3)cc2)cc1` (configuration not stated), the IC50 came to 840 nM. In other words, the sub-micromolar range.
The same measure for `CN(C)c1cc(NC(=O)Nc2ccccc2)c2ccccc2n1`: 410 nM; for `Cc1cc(OCC2CCN(c3ncc(C(=O)Nc4ccccc4)cc3Cl)CC2)ccc1F`: 900 nM; for `CSc1nccc(-c2ccc(S(=O)(=O)NC3CCC(CN4CCC(c5c[nH]c6ccccc56)CC4)CC3)s2)n1` (configuration not stated): 250 nM and 810 nM.
The value for `CC(C)CNCc1ccc(-c2cccc(CN(C(=O)NCCc3ccccc3)C3CCN(Cc4ccccc4)CC3)c2)cc1` was 580 nM; that for `Oc1ccc(Cl)cc1CN1CCCC(COC(c2ccc(F)cc2)c2ccc(F)cc2)C1` (configuration not stated) was 680 nM; that for `COc1ccc2ncc(F)c(CCN3CCC[C@H](CNCc4ccc5c(n4)NC(=O)CS5)C3)c2n1` was 970 nM.
In turn, `CC(Cc1ccc(NC(=O)[C@@H](C)NCCc2cccc(Cl)c2)cc1)NCCc1cccc(Cl)c1` (some centres not stated) yielded an IC50 of 780 nM.
Compound `CC(C)Nc1cc(C(=O)N[C@@H](Cc2ccccc2)[C@H](O)CNCc2cccc(C(F)(F)F)c2)c(F)c(N2CCCCS2(=O)=O)c1` showed an IC50 of 790 nM.
The same measure for `CC(C)CCN1C(=O)C(NC(=O)Oc2ccccc2)C(=O)N(CC23CC4CC(CC(C4)C2)C3)c2ccccc21` (configuration not stated): 750 nM.
The same measure for `Nc1ncc(-c2cn[nH]c2)cc1-c1nc2ccc(F)cc2[nH]1`: 730 nM; for `Fc1cc(Cl)ccc1Nc1ccnc2cc(-c3ccc(CN4CCNCC4)o3)ccc12`: 280 nM; for `COc1cccc(CN2CCCC(COC(c3ccc(F)cc3)c3ccc(F)cc3)C2)c1O` (configuration not stated): 330 nM.
The same measure for `O=C(Nc1ccc2c(c1)CCN2C1CCN(Cc2ccc(O)cc2)C1)c1ccco1` (configuration not stated): 900 nM; for `CCc1ccc(NC(=O)c2ccc(CN3CCCN(Cc4ccc(C)s4)CC3)cc2)cc1`: 1150 nM; for `COc1ccc2nc(C)cc(NN=Cc3ccc([N+](=O)[O-])o3)c2c1`: 700 nM.
With `COc1ccc(CNc2ccnc(-n3cnc4cc(C)c(C)cc43)n2)cc1Cl`, the IC50 was found to be 270 nM. This IC50 is about 2.6-fold lower than that of the compound before.
As to `CC(C)(C)c1ccc(NC(=O)c2ccc(CN3CCCN(Cc4ccc(F)cc4)CC3)cc2)cc1`, the IC50 was 1110 nM.
The value for `CN(C)CC(=O)N(Cc1ccc(Cl)c(Cl)c1)Cc1csc(-c2ccc(CNCc3ccccc3)cc2)n1` was 1050 nM; that for `O=C(c1ccc(OCCn2ccnc2)cc1)N1CCC(c2ccc(Br)cc2)C1` (configuration not stated) was 120 nM; that for `CCC(C)c1ccc(NC(=O)c2ccc(S(=O)(=O)Nc3ccc(OC)c(N4CCN(CC5CC5)CC4)c3)cc2)cc1` (configuration not stated) was 700 nM.
For `Cn1c(NC2CCN(CC3CCN(C(=O)/C=C/c4ccc(Cl)c(Cl)c4)CC3)CC2)nc2ccccc21`, the IC50 is 150 nM.
The same measure for `CC(=O)Nc1ccc(CN(Cc2ccc(F)cc2)Cc2ccc3c(c2)OCO3)cc1`: 940 nM; for `CN1CCCN(Cc2ccc(-c3ccc(NS(=O)(=O)c4cccc5cccnc45)cc3)cc2)CC1`: 690 nM.
The value for `CC(CNc1nc(NCC(c2ccccc2)c2ccccc2)c2[nH]cnc2n1)c1ccccc1` (configuration not stated) was 950 nM; that for `CN1CCN(c2nsc3ccc(-c4ccc(NC(=O)Nc5cc(C(F)(F)F)ccc5F)cc4)cc23)CC1` was 240 nM.
The same measure for `CC(C)(CNC(=O)/C=C/c1ccc(C(F)(F)F)cc1)CNc1cc(=O)c2ccccc2[nH]1`: 910 nM; for `COc1ccc(NC(=O)Nc2ccc(Nc3nc(C)cc(N(C)C)n3)cc2)cc1`: 450 nM.
`COc1ccc2nccc(N(C)CC3(O)CCN(CCc4ccc5c(c4)OCCO5)CC3)c2n1` gave an IC50 of 140 nM.
The value for `CC(C)NC(=O)c1cccc(-c2cccc(OCCN3CCSCC3c3ccccc3)c2)c1` (configuration not stated) was 1010 nM; that for `CC(=O)Nc1cccc(-c2cn(-c3ccc(OCc4cccc(F)c4)c(Cl)c3)c3ncncc23)c1` was 70 nM.
On to `CCCNCc1ccc(-c2ccc(CN(CC3CCCO3)C(=O)C3CC(=O)c4ccccc43)cc2)nc1` (configuration not stated), for which the IC50 is 860 nM.
The compound `O=[N+]([O-])c1ccc(-n2nc(-c3cccnc3)n(Cc3ccco3)c2=S)c(Cl)c1` came in with an IC50 of 200 nM.
The same measure for `COc1ccc(Cc2cnc3nc(N)nc(N)c3c2C)cc1`: 30 nM; for `COc1cccc2c(C)cc(NCc3ccc(Cl)cc3)nc12`: 860 nM.
The same measure for `CC(C)CNCc1ccc(-c2cccc(CN(CCCN3CCN(C)CC3)C(=O)/C=C/c3ccccc3)c2)cc1`: 870 nM; for `CC1CN(c2ccc(NC(=O)c3ccsc3)cc2C(=O)N2CCN(Cc3ccc(C(C)(C)C)cc3)CC2)CC(C)O1` (configuration not stated): 870 nM; for `COc1ccc(CCNCCCCCCNCCc2ccc(Cl)c(Cl)c2)cc1OC`: 930 nM.
The same measure for `CCNC(C)(C)CN(Cc1ccc(-c2ccc(C(F)(F)F)cc2)cc1)C(=O)Cn1c(CCc2cccc(F)c2F)nc(=O)c2ccccc21`: 810 nM; for `COCCCNC(=O)c1ccc(O)c(-c2cc(Cl)cc(Cl)c2)c1`: 920 nM; for `O=C(/C=C/c1ccc([N+](=O)[O-])cc1)N1CCC(NS(=O)(=O)c2cccc(C(F)(F)F)c2)CC1`: 850 nM.
`CCc1cn(CCOC)c2ccc(C(=O)N[C@@H](Cc3ccccc3)[C@H](O)CNC(C)(C)CCCC(C)C)cc12` gave an IC50 of 570 nM.
